Source: patent US20260138948A1, “N-SUBSTITUTED INDOLES AS 5-HYDROXYTRYPTAMINE (5-HT) SEROTONIN RECEPTOR AGONISTS AND ANTAGONISTS” (Terran Biosciences Inc., priority 2021, published 2026)

What was measured:
5HT2A sensor = settings: general statement on known hallucinogens and non-hallucinogenic congeners; cited from earlier work
[1] = Metabolic stability in human liver microsomes; format: in vitro ADME; settings: for difference in half-life and intrinsic clearance compared with reference compound (R)-1-(5-methoxy-1H-indol-1-yl)-N,N-dimethylpropan-2-amine / microsomal CLint at 1 μM: human liver microsomes; for difference in half-life and intrinsic clearance compared with reference compound (R)-1-(5-methoxy-1H-indol-1-yl)-N,N-dimethylpropan-2-amine: comment on Table 2; for half-life at 1 μM / microsomal CLint at 1 μM / CLint scaled at 1 μM: liver microsomes (pooled); for half-life at 1 μM: human liver microsomes 0.5 mg/mL, test compound 1.0 μM, 37° C., NADPH; for microsomal CLint at 1 μM: intrinsic clearance = 0.693/T1/2/mg microsome protein per mL, read-out: CLint(mic); for CLint scaled at 1 μM: human, scaled from CLint(mic) with 45 mg microsomal protein/g liver and 20 g liver/kg
Experimental: The test compound at 1.0 μM in singlet, or positive controls including Testosterone (CYP3A4 substrate), Propafenone (CYP2D6 substrate) or Diclofenac (CYP2C9 substrate) was incubated with the liver microsomes (Corning, Xenotech, or other credible vendor, pooled from multiple donors) at 0.5 mg/mL, respectively. The mixture was warmed up at 37° C. for 10 minutes and the reactions were initiated by the addition of a NADPH regenerating system (˜1.0 mM). The test compound incubated with the liver microsomes at 37° C. without the NADPH regenerating system served as the negative control reaction.
The reaction samples were removed at multiple time points (such as 0, 5, 15, 30, 45 and 60 minutes) and the sample without NADPH (NCF) was removed at 60 minutes. All the samples were immediately mixed with cold acetonitrile containing internal standard (IS) to stop the reaction.
Samples were analyzed by LC/MS/MS and the disappearance of test compound were assessed base on peak area ratios of analyte/IS (no standard curve). The microsomal intrinsic clearance and T1/2 values were calculated using the following equation: […]
The microsomal intrinsic clearance and T1/2 values were calculated using the following equation: […]
In these experiments the comparator compound was a suitable reference standard. In one embodiment the comparator compound was (R)-1-(5-methoxy-1H-indol-1-yl)-N,N-dimethylpropan-2-amine.

Compound	activation of the 5HT2A sensor assay in agonist mode (5HT2A sensor)	difference in half-life and intrinsic clearance compared with reference compound (R)-1-(5-methoxy-1H-indol-1-yl)-N,N-dimethylpropan-2-amine [1]	half-life at 1 μM [1] [min]	microsomal CLint at 1 μM [1] [µL/min/mg]	CLint scaled at 1 μM [1] [mL/min/kg]
CCN(CC)C(=O)[C@@H]1C=C2c3cccc4[nH]c(Br)c(c34)C[C@H]2N(C)C1 [BOL148]	do not activate the 5HT2A sensor assay in agonist mode	–	–	–	–
[2H]C([2H])([2H])N(C([2H])([2H])[2H])[C@]([2H])(C([2H])([2H])[2H])C([2H])([2H])n1ccc2cc(OC)ccc21 [Compound 6, (2R)-1,1,1,2,3,3-hexadeuterio-3-(5-methoxyindol-1-yl)-N,N-bis(trideuteriomethyl)propan-2-amine]	–	significant and beneficial differences in half-life and intrinsic clearance	109	12.7	11.4
CCN(CC)CCc1c[nH]c2cc(F)ccc12 [Compound 6-F-DET]	do not activate the 5HT2A sensor assay in agonist mode	–	–	–	–
COc1ccc2c(CCN(C)C)c[nH]c2c1 [Compound 6-MeO-DMT]	do not activate the 5HT2A sensor assay in agonist mode	–	–	–	–
[2H]C([2H])([2H])Oc1ccc2c(ccn2C([2H])([2H])[C@]([2H])(N(C)C)C([2H])([2H])[2H])c1 [Compound 151, (2R)-1,1,1,2,3,3-hexadeuterio-N,N-dimethyl-3-[5-(trideuteriomethoxy)indol-1-yl]propan-2-amine]	–	most significant difference in half-life and intrinsic clearance ratio	120	11.5	10.4
[2H]C([2H])([2H])Oc1ccc2c(ccn2C([2H])([2H])[C@]([2H])(N(C([2H])([2H])[2H])C([2H])([2H])[2H])C([2H])([2H])[2H])c1 [Compound 152, (2R)-1,1,1,2,3,3-hexadeuterio-3-[5-(trideuteriomethoxy)indol-1-yl]-N,N-bis(trideuteriomethyl)propan-2-amine]	–	significant and beneficial differences in half-life and intrinsic clearance	114	12.4	11.1
CN(C)CCc1c[nH]c2ccccc12 [DMT, N,N-dimethyltryptamine]	activate the 5HT2A sensor assay in agonist mode	–	–	–	–
COc1cc(CC(C)N)c(OC)cc1I (centres unmarked) [DOI, 2,5-dimethoxy-4-iodoamphetamine]	activate the 5HT2A sensor assay in agonist mode	–	–	–	–
O=C(c1ccc(F)cc1)C1CCN(CCn2c(=O)[nH]c3ccccc3c2=O)CC1 [Ketanserin, ketanserin]	do not activate the 5HT2A sensor assay in agonist mode	–	–	–	–
CN[C@H](C)Cc1ccc2c(c1)OCO2 [L-MDMA]	do not activate the 5HT2A sensor assay in agonist mode	–	–	–	–
CCN(CC)C(=O)[C@@H]1C=C2c3cccc4[nH]cc(c34)C[C@H]2N(C)C1 [LSD, lysergic acid diethylamide]	activate the 5HT2A sensor assay in agonist mode	–	–	–	–
